Patent publication US5708063A, “Photochromic compound” (Tokuyama Corporation, priority 1993, dated 1998)

Assay: Photochromic PMMA cast film: initial coloration density, maximum absorption wavelength and fatigue life in xenon fadeometer (Example 9);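 on Initial color density: initial color density is an absorbance value so the % unit is wrong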
Format: physicochemical
Details: PMMA cast film 0.1 mm; for λmax / Initial color density: xenon light; for Initial color density / T1/2: no stabilizer; for T1/2: time for color density to fall to half of initial value, xenon fadeometer
Excerpt: The thickness of the cast film was adjusted to 0.1 mm.
T1/2 is defined as the time required for the color density to decrease to half of its initial value when the film is exposed to the fadeometer.

| λmax [nm] | Initial color density [%] | T1/2 [h] | Compound |
| --- | --- | --- | --- |
| 495 | 0.69 | 47 | COC12CCC(CC1)C21c2oc3ccccc3c2C(C2CC2(Br)Br)=C2C(=O)N(CC(=O)OC(C)(C)CCC#N)C(=O)C21 (stereo not drawn) [(13)] |
| 498 | 0.82 | 91 | COCCOCN1C(=O)C2=C(C3(F)C(F)(F)C3(F)F)c3c(oc4ccccc34)C3(C2C1=O)C1(F)CCC3(F)CC1 (stereo not drawn) [(16)] |
| 603 | 0.62 | 61 | COc1cc(OC)c2c(c1)C(C1C(C)(C)C1(C)C)=C1C(=O)N(Cc3ccc4ccccc4c3)C(=O)C1C21C2CCC1CC2 (stereo not drawn) [(18)] |
| 539 | 0.87 | 53 | CC(C)COC(=O)CN1C(=O)C2=C(C3C(CCl)C3CCl)c3cc(Br)sc3C3(C4CCCC3CCC4)C2C1=O (stereo not drawn) [(23)] |
| 546 | 0.78 | 72 | COC(=O)C(C)N1C(=O)C2=C(C3CC3OC(C)(C)C)c3cc(Cl)oc3C3(C4CCCC3(C)CC(C)(C)C4)C2C1=O (stereo not drawn) [(26)] |
| 553 | 0.68 | 51 | CCCCC1CC2CCCC(C1)C21c2sc(C)c(CC)c2C(C2C(I)C2I)=C2C(=O)N(CC3CCCCC3C#N)C(=O)C21 (stereo not drawn) [(27)] |
| 588 | 0.52 | 62 | COc1cc(OC)c2c(c1)C(C1CC1O)=C1C(=O)N(C3CCC([N+](=O)[O-])CC3)C(=O)C1C21C2CCCC1(Cl)CCC2 (stereo not drawn) [(29)] |
| 592 | 0.61 | 68 | Cn1c2c(c3ccccc31)C1(C3CC4CC(C3)CC1C4)C1C(=O)N(CC(C)(C)CCOC(=O)CBr)C(=O)C1=C2C1CC1CCCc1ccccc1 (stereo not drawn) [(38)] |
| 509 | 0.62 | 72 | CCOC(=O)C12CC3CC(C1)C1(c4c([N+](=O)[O-])csc4C(C4CC4Br)=C4C(=O)N(CC(F)(F)F)C(=O)C41)C(C(=O)OCC)(C3)C2 (stereo not drawn) [(43)] |
| 529 | 0.72 | 52 | CN(C)c1ccc2cc(CCCN3C(=O)C4=C(C5CC5)c5c([N+](=O)[O-])csc5C5(C6CC7CC(C6)CC5C7)C4C3=O)ccc2c1 (stereo not drawn) [(47)] |
| 534 | 1.21 | 54 | O=C1OC(=O)C2C1=C(C1CC1)c1c(oc3ccccc13)C21C2CCC1CC2 (stereo not drawn) [(52)] |
| 554 | 1.24 | 48 | Cc1cc2c(s1)C1(C3CC4CC(Cl)(C3)CC1(Cl)C4)C1C(=O)OC(=O)C1=C2C1CC1 (stereo not drawn) [(58)] |

| Compound | λmax [nm] | Initial color density [%] | T1/2 [h] |
| --- | --- | --- | --- |
| CNC(=O)CN1C(=O)C2=C(C3CC3C(F)(F)F)c3cc([N+](=O)[O-])sc3C3(C4CCC3CC4)C2C1=O (stereo not drawn) [(11)] | 530 | 0.75 | 65 |
| N#CCOCN1C(=O)C2=C(C3CC3c3ccccc3)c3sccc3C3(C2C1=O)C1(Cl)CCC3(Cl)CC1 (stereo not drawn) [(14)] | 552 | 0.58 | 69 |
| COC1CC1C1=C2C(=O)N(Cc3ccc4ccccc4c3)C(=O)C2C2(c3c1sc1ccccc31)C1CCC2CC1 (stereo not drawn) [(19)] | 524 | 0.58 | 81 |
| COC12CCCC(CCC1)C21c2c(Cl)csc2C(C2CC2CCc2ccccc2)=C2C(=O)N(CC(=O)NCCBr)C(=O)C21 (stereo not drawn) [(28)] | 526 | 0.56 | 54 |
| CCSC1CC1C1=C2C(=O)N(C(CC)COC(=O)OC[N+](=O)[O-])C(=O)C2C2(c3scc([N+](=O)[O-])c31)C1CC3CC2CC(C)(C3)C1 (stereo not drawn) [(37)] | 540 | 0.77 | 75 |
| COc1cc2c(c(OC)c1OC)C1(C3CC4CC1CC(OC)(C4)C3)C1C(=O)N(CC(=O)NCCBr)C(=O)C1=C2C1CC1C(Cl)(Cl)Cl (stereo not drawn) [(39)] | 527 | 0.58 | 65 |
